{"source": "patent US7622256B2", "about": "“Method for selecting compounds that modulate MIF-induced expression of ICAM-1 and/or VCAM-1” (Avigen, Inc., priority 2006, dated 2009)", "key": {"[1]": {"tested_on": "rMIF-induced cell surface ICAM-1 expression in PBMCs", "test": "Cell surface ELISA of ICAM-1 expression in stimulated PBMC culture", "type": "cell-based, Human", "conditions": "for % change in ICAM-1 expression with ibudilast: normalized to no stimulant levels, n = 2", "protocol": "(§1) In order to determine whether ibudilast antagonized MIF activity, a peripheral blood mononuclear cell (PBMC) culture model was used. Human PBMCs were isolated by Ficoll gradient. Cells were plated in a 96-well tissue culture plate in RPMI medium without serum and incubated overnight to achieve quiescence. They were then treated with 0.1% DMSO (vehicle) or ibudilast at 10 μM, one hour prior to stimulation with recombinant human MIF (0.8, 8, or 80 nM) or LPS (10 ng/mL). 9 hours post-stimulation, the adherent cells were fixed and analyzed for expression of […] adhesion molecule-1 (ICAM-1) and vascular cell adhesion molecule-1 (VCAM-1) via cell surface enzyme linked immunosorbent assay (ELISA)."}, "[2]": {"tested_on": "rMIF-induced cell surface VCAM-1 expression in PBMCs", "test": "Cell surface ELISA of VCAM-1 expression in stimulated PBMC culture", "type": "cell-based, Human", "conditions": "for % change in VCAM-1 expression with ibudilast: normalized to no stimulant levels, n = 2", "protocol": "as §1"}, "[3]": {"conditions": "10 μM ibudilast 1 h before stimulant, LPS 10 ng/mL, 9 hours post-stimulation"}, "[4]": {"conditions": "10 μM ibudilast 1 h before stimulant, MIF 0.8 nM, 9 hours post-stimulation"}, "[5]": {"conditions": "10 μM ibudilast 1 h before stimulant, MIF 8 nM, 9 hours post-stimulation"}, "[6]": {"conditions": "10 μM ibudilast 1 h before stimulant, MIF 80 nM, 9 hours post-stimulation"}, "[7]": {"conditions": "10 μM ibudilast, No Stimulant (quiescent cells)"}, "[8]": {"conditions": "10 μM ibudilast, recombinant human MIF stimulation"}}, "data": [{"molecule": "CC(C)C(=O)c1c(C(C)C)nn2ccccc12", "note": "[ibudilast, 3-isobutyryl-2-isopropylpyrazolo[1,5-a]pyridine]", "values": [{"measurement": "% change in ICAM-1 expression with ibudilast", "setting": "[1]; [3]", "result": 74.5, "unit": "%"}, {"measurement": "% change in ICAM-1 expression with ibudilast", "setting": "[1]; [4]", "result": "−2.5", "unit": "%"}, {"measurement": "% change in ICAM-1 expression with ibudilast", "setting": "[1]; [5]", "result": "−0.95", "unit": "%"}, {"measurement": "% change in ICAM-1 expression with ibudilast", "setting": "[1]; [6]", "result": "−1.3", "unit": "%"}, {"measurement": "effect on LPS induction of ICAM-1 (in words)", "setting": "[1]; 10 μM ibudilast, LPS 10 ng/mL", "result": "not significantly affected"}, {"measurement": "% change in ICAM-1 expression with ibudilast", "setting": "[1]; [7]", "result": 30.9, "unit": "%"}, {"measurement": "effect on recombinant MIF-induced expression of ICAM-1 (in words)", "setting": "[1]; [8]", "result": "antagonizes"}, {"measurement": "% change in VCAM-1 expression with ibudilast", "setting": "[2]; [3]", "result": "−1.5", "unit": "%"}, {"measurement": "% change in VCAM-1 expression with ibudilast", "setting": "[2]; [4]", "result": "−2.9", "unit": "%"}, {"measurement": "% change in VCAM-1 expression with ibudilast", "setting": "[2]; [5]", "result": 4.4, "unit": "%"}, {"measurement": "% change in VCAM-1 expression with ibudilast", "setting": "[2]; [6]", "result": 5.4, "unit": "%"}, {"measurement": "effect on LPS induction of VCAM-1 (in words)", "setting": "[2]; 10 μM ibudilast, LPS 10 ng/mL", "result": "not significantly affected"}, {"measurement": "% change in VCAM-1 expression with ibudilast", "setting": "[2]; [7]", "result": 95.1, "unit": "%"}, {"measurement": "effect on recombinant MIF-induced expression of VCAM-1 (in words)", "setting": "[2]; [8]", "result": "antagonizes"}]}]}
